# Source: patent US9187472B2 (AbbVie Inc., priority 2012, dated 2015)
# Tests used:
# PC3 cells = assay: NAMPT Cell Proliferation Assay; type: cell-based; conditions: Homo sapiens, PC-3, 120 h, 5 days incubation, cell viability by Cell Titer Glo
# How it was run: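 Following overnight attachment in RPMI with 10% heat-inactivated FBS, PC3 cells at 500 per well receive compounds spanning 10 μM down to 1×10^−5 μM. Growth is assessed by luminescent viability read after 5 days.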
# [1] = biological target: NAMPT (human, recombinant, C-terminally His-tagged) (Homo sapiens, UniProt P43490); assay: Time-Resolved Fluorescence Resonance Energy Transfer (TR-FRET) Binding Assay of NAMPT; conditions: without substrates; 6.8 nM NAMPT, 200 nM probe, 3 hours equilibration
# Chain of NAMPT (human, recombinant, C-terminally His-tagged) (P43490 whole entry): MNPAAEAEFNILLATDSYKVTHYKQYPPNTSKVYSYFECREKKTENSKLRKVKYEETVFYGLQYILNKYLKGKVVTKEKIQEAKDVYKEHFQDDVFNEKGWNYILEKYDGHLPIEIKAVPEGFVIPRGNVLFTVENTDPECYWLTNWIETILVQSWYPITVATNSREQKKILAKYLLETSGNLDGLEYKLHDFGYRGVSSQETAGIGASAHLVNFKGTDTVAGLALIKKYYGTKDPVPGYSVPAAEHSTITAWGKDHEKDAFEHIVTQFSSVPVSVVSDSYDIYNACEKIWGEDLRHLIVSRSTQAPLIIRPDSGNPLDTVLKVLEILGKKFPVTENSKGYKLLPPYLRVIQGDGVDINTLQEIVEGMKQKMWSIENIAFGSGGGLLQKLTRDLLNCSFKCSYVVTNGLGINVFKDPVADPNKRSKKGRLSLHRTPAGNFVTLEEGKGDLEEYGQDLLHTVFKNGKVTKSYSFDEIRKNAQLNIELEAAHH
# How it was run: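 Competitive binding against an Oregon Green 488 tracer (200 nM), 6.8 nM His-tagged enzyme, 1 nM Tb antibody, 2% DMSO, 3 h at RT. IC50 derived from TR-FRET ratios.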
# NAMPT = NAMPT (Homo sapiens, UniProt P43490); assay: TR-FRET Binding Assay of NAMPT with PRPP; conditions: with 200 μM PRPP and 2.5 mM ATP; 2 nM NAMPT, 2 nM probe, 16 hours equilibration
# Chain of NAMPT (P43490 whole entry): as above
# How it was run: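 Read-out is TR-FRET after a 16 h equilibration allowing possible compound modification by the enzyme. Final mix: 2 nM NAMPT, 2 nM probe, 1 nM Tb-anti-His antibody, 200 μM PRPP, 2.5 mM ATP, 2% DMSO.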
Compound,IC50 (PC3 cells) [nM],IC50 [1] [nM],IC50 (NAMPT) [nM]
"CC1(C(=O)N2CCC(c3ccc(C(=O)NCc4ccn5ccnc5c4)s3)C2)COC1 (stereo not drawn) [Example 767, N-(imidazo[1,2-a]pyridin-7-ylmethyl)-5-{1-[(3-methyloxetan-3-yl)carbonyl]pyrrolidin-3-yl}thiophene-2-carboxamide]",67.2,265,0.64
"O=C(NCc1ccn2ccnc2c1)c1ccc(C2CCN(C(=O)c3cc(F)cc(F)c3)C2)s1 (stereo not drawn) [Example 768, 5-[1-(3,5-difluorobenzoyl)pyrrolidin-3-yl]-N-(imidazo[1,2-a]pyridin-7-ylmethyl)thiophene-2-carboxamide]",0.905,28.1,0.672
"O=C(NCc1ccn2ccnc2c1)c1ccc(C2CCN(C(=O)C3CCCC3)C2)s1 (stereo not drawn) [Example 769, 5-[1-(cyclopentylcarbonyl)pyrrolidin-3-yl]-N-(imidazo[1,2-a]pyridin-7-ylmethyl)thiophene-2-carboxamide]",5.26,98.4,0.705
"O=C(NCc1ccn2ccnc2c1)c1ccc(C2CCN(C(=O)c3ccc(Cl)cc3)C2)s1 (stereo not drawn) [Example 770, 5-[1-(4-chlorobenzoyl)pyrrolidin-3-yl]-N-(imidazo[1,2-a]pyridin-7-ylmethyl)thiophene-2-carboxamide]",6,38.8,0.735
"Cn1cccc1C(=O)N1CCC(c2ccc(C(=O)NCc3ccn4ccnc4c3)s2)C1 (stereo not drawn) [Example 771, N-(imidazo[1,2-a]pyridin-7-ylmethyl)-5-{1-[(1-methyl-1H-pyrrol-2-yl)carbonyl]pyrrolidin-3-yl}thiophene-2-carboxamide]",3.47,70.8,0.573
"O=C(NCc1ccn2ccnc2c1)c1ccc(C2CCN(C(=O)c3ccc(F)cc3F)C2)s1 (stereo not drawn) [Example 772, 5-[1-(2,4-difluorobenzoyl)pyrrolidin-3-yl]-N-(imidazo[1,2-a]pyridin-7-ylmethyl)thiophene-2-carboxamide]",2.4,61.5,0.828
"O=C(NCc1ccn2ccnc2c1)c1ccc(C2CCN(C(=O)c3ccncc3)C2)s1 (stereo not drawn) [Example 773, N-(imidazo[1,2-a]pyridin-7-ylmethyl)-5-[1-(pyridin-4-ylcarbonyl)pyrrolidin-3-yl]thiophene-2-carboxamide]",9.53,72.6,0.773
"O=C(NCc1ccn2ccnc2c1)c1ccc(C2CCN(C(=O)c3ccccn3)C2)s1 (stereo not drawn) [Example 774, N-(imidazo[1,2-a]pyridin-7-ylmethyl)-5-[1-(pyridin-2-ylcarbonyl)pyrrolidin-3-yl]thiophene-2-carboxamide]",7.07,103,0.46
"Cn1cc(C(=O)N2CCC(c3ccc(C(=O)NCc4ccn5ccnc5c4)s3)C2)cn1 (stereo not drawn) [Example 775, N-(imidazo[1,2-a]pyridin-7-ylmethyl)-5-{1-[(1-methyl-1H-pyrazol-4-yl)carbonyl]pyrrolidin-3-yl}thiophene-2-carboxamide]",60.9,51.9,0.538
"O=C(NCc1ccn2ccnc2c1)c1ccc(C2CCN(C(=O)c3ccccc3F)C2)s1 (stereo not drawn) [Example 776, 5-[1-(2-fluorobenzoyl)pyrrolidin-3-yl]-N-(imidazo[1,2-a]pyridin-7-ylmethyl)thiophene-2-carboxamide]",2.1,21.5,0.169
"CC/C=C(\C)C(=O)N1CCC(c2ccc(C(=O)NCc3ccn4ccnc4c3)s2)C1 (stereo not drawn) [Example 777, N-(imidazo[1,2-a]pyridin-7-ylmethyl)-5-{1-[(2E)-2-methylpent-2-enoyl]pyrrolidin-3-yl}thiophene-2-carboxamide]",1.26,39.4,0.92
"Cc1cc(C(=O)N2CCC(c3ccc(C(=O)NCc4ccn5ccnc5c4)s3)C2)c(C)o1 (stereo not drawn) [Example 778, 5-{1-[(2,5-dimethylfuran-3-yl)carbonyl]pyrrolidin-3-yl}-N-(imidazo[1,2-a]pyridin-7-ylmethyl)thiophene-2-carboxamide]",0.896,27.6,0.414
"O=C(NCc1ccn2ccnc2c1)c1ccc(C2CCN(C(=O)c3cccc(Cl)c3)C2)s1 (stereo not drawn) [Example 779, 5-[1-(3-chlorobenzoyl)pyrrolidin-3-yl]-N-(imidazo[1,2-a]pyridin-7-ylmethyl)thiophene-2-carboxamide]",0.499,14.2,0.603
"CCC(=O)N1CCC(c2ccc(C(=O)NCc3ccn4ccnc4c3)s2)C1 (stereo not drawn) [Example 780, N-(imidazo[1,2-a]pyridin-7-ylmethyl)-5-(1-propanoylpyrrolidin-3-yl)thiophene-2-carboxamide]",81.7,250,0.382
"N#CC1(C(=O)N2CCC(c3ccc(C(=O)NCc4ccn5ccnc5c4)s3)C2)CC1 (stereo not drawn) [Example 781, 5-{1-[(1-cyanocyclopropyl)carbonyl]pyrrolidin-3-yl}-N-(imidazo[1,2-a]pyridin-7-ylmethyl)thiophene-2-carboxamide]",7.27,87.5,0.839
"CCCC(=O)N1CCC(c2ccc(C(=O)NCc3ccn4ccnc4c3)s2)C1 (stereo not drawn) [Example 782, 5-(1-butanoylpyrrolidin-3-yl)-N-(imidazo[1,2-a]pyridin-7-ylmethyl)thiophene-2-carboxamide]",24.7,134,0.466
"O=C(NCc1ccn2ccnc2c1)c1ccc(C2CCN(C(=O)c3ccco3)C2)s1 (stereo not drawn) [Example 783, 5-[1-(furan-2-ylcarbonyl)pyrrolidin-3-yl]-N-(imidazo[1,2-a]pyridin-7-ylmethyl)thiophene-2-carboxamide]",9.8,64.4,0.907
"COc1ccc(C(=O)N2CCC(c3ccc(C(=O)NCc4ccn5ccnc5c4)s3)C2)cc1 (stereo not drawn) [Example 784, N-(imidazo[1,2-a]pyridin-7-ylmethyl)-5-[1-(4-methoxybenzoyl)pyrrolidin-3-yl]thiophene-2-carboxamide]",2.38,22.6,0.455
"O=C(NCc1ccn2ccnc2c1)c1ccc(C2CCN(C(=O)c3cc(F)ccc3F)C2)s1 (stereo not drawn) [Example 785, 5-[1-(2,5-difluorobenzoyl)pyrrolidin-3-yl]-N-(imidazo[1,2-a]pyridin-7-ylmethyl)thiophene-2-carboxamide]",0.839,23.6,0.638
"O=C(NCc1ccn2ccnc2c1)c1ccc(C2CCN(C(=O)c3cccs3)C2)s1 (stereo not drawn) [Example 786, N-(imidazo[1,2-a]pyridin-7-ylmethyl)-5-[1-(thiophen-2-ylcarbonyl)pyrrolidin-3-yl]thiophene-2-carboxamide]",7.51,44.4,0.484
"CC(C)(C)C(=O)N1CCC(c2ccc(C(=O)NCc3ccn4ccnc4c3)s2)C1 (stereo not drawn) [Example 787, 5-[1-(2,2-dimethylpropanoyl)pyrrolidin-3-yl]-N-(imidazo[1,2-a]pyridin-7-ylmethyl)thiophene-2-carboxamide]",6.75,55,0.474
"CC(C)(C)CC(=O)N1CCC(c2ccc(C(=O)NCc3ccn4ccnc4c3)s2)C1 (stereo not drawn) [Example 788, 5-[1-(3,3-dimethylbutanoyl)pyrrolidin-3-yl]-N-(imidazo[1,2-a]pyridin-7-ylmethyl)thiophene-2-carboxamide]",5.44,82,0.674
"CC1(Cn2cc(-c3ccc(C(=O)NCc4ccn5ccnc5c4)s3)cn2)CCNCC1 [Example 789, N-(imidazo[1,2-a]pyridin-7-ylmethyl)-5-{1-[(4-methylpiperidin-4-yl)methyl]-1H-pyrazol-4-yl}thiophene-2-carboxamide]",69.4,21.7,0.434
"O=C(NCc1ccn2ccnc2c1)c1ccc(-c2cnn(CC3(F)CCOCC3)c2)o1 [Example 790, 5-{1-[(4-fluorotetrahydro-2H-pyran-4-yl)methyl]-1H-pyrazol-4-yl}-N-(imidazo[1,2-a]pyridin-7-ylmethyl)furan-2-carboxamide]",2.6,79.5,0.586
"CCC(C)(C)C(=O)N1CCC(c2ccc(C(=O)NCc3ccn4ccnc4c3)s2)C1 (stereo not drawn) [Example 791, 5-[1-(2,2-dimethylbutanoyl)pyrrolidin-3-yl]-N-(imidazo[1,2-a]pyridin-7-ylmethyl)thiophene-2-carboxamide]",0.898,47.1,1.15
"O=C(NCc1ccn2ccnc2c1)c1ccc(C2CCN(C(=O)c3cnccn3)C2)s1 (stereo not drawn) [Example 792, N-(imidazo[1,2-a]pyridin-7-ylmethyl)-5-[1-(pyrazin-2-ylcarbonyl)pyrrolidin-3-yl]thiophene-2-carboxamide]",9.57,116,0.5
"Cc1ccsc1C(=O)N1CCC(c2ccc(C(=O)NCc3ccn4ccnc4c3)s2)C1 (stereo not drawn) [Example 793, N-(imidazo[1,2-a]pyridin-7-ylmethyl)-5-{1-[(3-methylthiophen-2-yl)carbonyl]pyrrolidin-3-yl}thiophene-2-carboxamide]",1.02,23.1,0.398
